Each compound was assayed on Bacillus polymyxa BN-109 (assay: Sensitivity of producing strain BN-109 towards antibiotics (disc method)).
Assay type: cell-based
From the text: 14. Sensitivity towards antibiotics (disc method):
In the case of `NC[C@H]1O[C@H](O[C@H]2[C@H](O)[C@@H](O[C@H]3O[C@H](CO)[C@@H](O)[C@H](N)[C@H]3O)[C@H](N)C[C@@H]2N)[C@H](O)[C@@H](O)[C@@H]1O` [kanamycin], the Sensitivity towards antibiotics is reported as “Sensitive”.
`[H]/N=C(/N)N[C@H]1[C@H](O)[C@@H](O)[C@H](O[C@@H]2O[C@@H](C)[C@](O)(C=O)[C@H]2O[C@@H]2O[C@@H](CO)[C@H](O)[C@@H](O)[C@@H]2NC)[C@@H](N/C(N)=N\[H])[C@@H]1O` [Streptomycin] was tested, and the Sensitivity towards antibiotics was “Sensitive”.
With colistin the Sensitivity towards antibiotics was “Resistant”.
In the case of `NC[C@H]1O[C@H](O[C@H]2[C@H](O[C@@H]3O[C@H](CO)[C@@H](O)[C@H]3O)[C@@H](O)[C@H](N)C[C@@H]2N)[C@H](N)[C@@H](O)[C@@H]1O` [vistamycin], the Sensitivity towards antibiotics is reported as “Sensitive”.
In the case of `CC[C@H]1OC(=O)[C@H](C)[C@@H](O[C@H]2C[C@@](C)(OC)[C@@H](O)[C@H](C)O2)[C@H](C)[C@@H](O[C@@H]2O[C@H](C)C[C@H](N(C)C)[C@H]2O)[C@](C)(O)C[C@@H](C)C(=O)[C@H](C)[C@@H](O)[C@]1(C)O` [erythromycin], the Sensitivity towards antibiotics is reported as “Sensitive”.
With Polymyxin B the Sensitivity towards antibiotics was “Resistant”.
`O=C(Cc1cccs1)N[C@@H]1C(=O)N2C(C(=O)[O-])=C(C[n+]3ccccc3)CS[C@H]12` [cephalolidin] was tested, and the Sensitivity towards antibiotics was “Sensitive”.
With `CN(C)C1C(=O)C(C(N)=O)=C(O)C2(O)C(=O)C3=C(O)c4c(O)cccc4C(C)(O)C3CC12` (centres unmarked) [tetracyclin] the Sensitivity towards antibiotics was “Sensitive”.
With `CCn1cc(C(=O)O)c(=O)c2ccc(C)nc21` [nalidixic acid] the Sensitivity towards antibiotics was “Sensitive”.
For `O=C(N[C@H](CO)[C@H](O)c1ccc([N+](=O)[O-])cc1)C(Cl)Cl` [chloramphenical], the Sensitivity towards antibiotics was “Sensitive”.
In the case of `CC1(C)S[C@@H]2[C@H](NC(=O)Cc3ccccc3)C(=O)N2[C@H]1C(=O)O` [penicillin], the Sensitivity towards antibiotics is reported as “Sensitive”.
